Source: patent publication US6087334A, “Anti-diabetic peptides” (Amylin Pharmaceuticals, Inc., priority 1998, dated 2000)
Where a SMILES comes first, the peptide text is derived from it. Bridges are numbered along the chain shown (N, C = ends).

Target: T1, C1a receptor (C1a-type calcitonin receptor) (Rattus norvegicus, UniProt P32214)
T1 construct: expressed in transfected cells
T1 sequence (P32214 25-479 isoform P32214-2 limits assumed): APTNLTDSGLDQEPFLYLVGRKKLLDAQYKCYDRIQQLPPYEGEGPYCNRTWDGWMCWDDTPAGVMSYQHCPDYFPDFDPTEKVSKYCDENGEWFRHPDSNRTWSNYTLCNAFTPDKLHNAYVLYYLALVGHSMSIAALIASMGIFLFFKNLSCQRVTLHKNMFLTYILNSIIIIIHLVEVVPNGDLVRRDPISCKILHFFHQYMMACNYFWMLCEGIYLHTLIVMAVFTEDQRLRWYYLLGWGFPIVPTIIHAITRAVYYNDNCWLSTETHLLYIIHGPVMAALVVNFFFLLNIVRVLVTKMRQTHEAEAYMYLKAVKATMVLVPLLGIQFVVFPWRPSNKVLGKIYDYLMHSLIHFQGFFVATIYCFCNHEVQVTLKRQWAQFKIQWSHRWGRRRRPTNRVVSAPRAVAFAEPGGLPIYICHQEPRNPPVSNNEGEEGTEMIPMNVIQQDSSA
Experiment: C1a/293 competitive binding, displacement of [125I]-human calcitonin (Example C)
Details: HEK293 plasma membranes (C1a/293), [125I]-human calcitonin 20 pM
Protocol: Peptide compounds of the present invention may be evaluated for binding to the C1a receptor using the procedures described in Example C. The C1a receptor is the predominant mammalian calcitonin receptor subtype. C1a pcDNA construction and transfection were carried out as previously described (Albrandt et al. 1993, FEBS Letters, 325:225-232). HEK293 cell lines showing stable expression of the rat C1a-type calcitonin receptor (C1a/293) or the human C1a-type calcitonin receptor (1154/293) were selected by G418 resistance and limiting dilution culture methods. Plasma membranes were collected from homogenized HEK293 cells and used in the receptor binding assay. Individual test peptides at concentrations spanning 6 log units starting at around 10^-6 M were examined for their ability to displace [^125 I]-human calcitonin from the plasma membrane preparation using a 96-well microtiter plate format and scintillation counting with a Wallac LKB Beta plate counter. Competitive binding curves were constructed. Non-specific binding was measured in the presence of 100 nM calcitonin. Peptide potencies (IC50 's for competitive binding) were calculated by non-linear regression using Prism™ (version 2.01, GraphPAD Software, San Diego, Calif.).
C1a/293 Competitive Binding Studies:
Compounds were evaluated for competition in binding to the C1a receptor as follows:
Reference peptides used in these studies were purchased from Bachem (Torrance, Calif.). All other chemicals were of the highest commercial grade. [^35 S]-GTPγS was purchased from NEN Life Science Products, Inc., Pittsburgh, Pa. [^125 I]-human calcitonin was purchased from Amersham Pharmacia Biotech, Inc., Piscataway, N.J.
Methods for C1a pcDNA construction and transfection have been previously described (Albrandt, et al. 1993). HEK293 cell lines stably expressing the rat C1a-type calcitonin receptor (C1a/293) or the human C1a-type calcitonin receptor (1154/293) were selected by G418 resistance and limiting dilution culture methods.
Confluent cells were detached from tissue culture flasks by incubation with 5 mM EDTA in PBS. Cells were homogenized in ice-cold 20 mM HEPES, pH 7.4 with a Polytron homogenizer. Plasma membranes were collected using three cycles of washing in fresh buffer followed by centrifugation for 15 minutes at 48,000×g. The final membrane pellet was resuspended in 20 mM HEPES buffer containing 0.2 mM phenylmethylsulfonyl fluoride (PMSF) and stored at -70° C.
Assay buffer contained 5 μg/mL bestatin, 1 μg/mL phosphoramidon, 1 mg/mL bovine serum albumin (fraction V), 1 mg/mL bacitracin, 1 mM MgCl2, and 20 mM HEPES, pH 7.4. Membranes (2-5 μg membrane protein/well), [^125 I]-human calcitonin (20 pM), and peptides were combined in 200 μL buffer in 96-well microtiter plates. After a 60 minute incubation at room temperature, well contents were harvested onto polyethyleneimine-treated GF/B glass fiber pads using a Tomtec Mach II plate harvestor (Hamden, Conn.). Dried pads were combined with scintillant and counted on a Wallac LKB Beta Plate scintillation counter (Gaithersburg, Md.). For competitive binding curves, samples were run in duplicate over a 6 log concentration range starting at 10^-6 or 10^-7 M. Non-specific binding was measured in the presence of 100 nM human calcitonin.

| Compound | IC50 [nM] |
| --- | --- |
| CC(C)C[C@H](NC(=O)[C@H](CCCNC(=N)N)NC(=O)[C@H](C)NC(=O)[C@@H](NC(=O)[C@H](C)NC(=O)[C@@H]1CSSC[C@H](NC(=O)[C@@H](N)CCCCN)C(=O)N[C@@H](CC(N)=O)C(=O)N[C@@H]([C@@H](C)O)C(=O)N[C@@H](C)C(=O)N[C@@H]([C@@H](C)O)C(=O)N1)[C@@H](C)O)C(=O)N[C@@H](C)C(=O)N[C@@H](C)C(=O)N[C@@H](Cc1ccccc1)C(=O)N[C@@H](CC(C)C)C(=O)N[C@@H](C)C(=O)N[C@@H](CCCNC(=N)N)C(=O)N[C@@H](CO)C(=O)N[C@@H](CO)C(=O)NCC(=O)N[C@@H](Cc1ccc(O)cc1)C(N)=O [Example 1] (H-KCNTATCATARLAAFLARSSGY-NH2; disulfide 2-7) | 0.093 |
| CC(C)C[C@H](NC(=O)[C@H](CCCNC(=N)N)NC(=O)[C@H](C)NC(=O)[C@@H](NC(=O)[C@H](C)NC(=O)[C@@H]1CSSC[C@H](N)C(=O)N[C@@H](CC(N)=O)C(=O)N[C@@H]([C@@H](C)O)C(=O)N[C@@H](C)C(=O)N[C@@H]([C@@H](C)O)C(=O)N1)[C@@H](C)O)C(=O)N[C@@H](C)C(=O)N[C@@H](C)C(=O)N[C@@H](Cc1ccccc1)C(=O)N[C@@H](CC(C)C)C(=O)N[C@@H](C)C(=O)N[C@@H](CCCNC(=N)N)C(=O)N[C@@H](CO)C(N)=O [Example 3] (H-CNTATCATARLAAFLARS-NH2; disulfide 1-6) | 0.19 |
| CC(C)C[C@H](NC(=O)[C@H](CCCNC(=N)N)NC(=O)[C@H](C)NC(=O)[C@@H](NC(=O)[C@H](C)NC(=O)[C@@H]1CSSC[C@H](NC(=O)[C@@H](N)CCCCN)C(=O)N[C@@H](CC(N)=O)C(=O)N[C@@H]([C@@H](C)O)C(=O)N[C@@H](C)C(=O)N[C@@H]([C@@H](C)O)C(=O)N1)[C@@H](C)O)C(=O)N[C@@H](C)C(=O)N[C@@H](CC(N)=O)C(=O)N[C@@H](Cc1ccccc1)C(=O)N[C@@H](CC(C)C)C(=O)N[C@H](C(=O)N[C@@H](CCCNC(=N)N)C(=O)N[C@@H](CO)C(=O)N[C@@H](CO)C(=O)NCC(=O)N[C@@H](Cc1ccc(O)cc1)C(N)=O)C(C)C [Example 5] (H-KCNTATCATARLANFLVRSSGY-NH2; disulfide 2-7) | 1.4 |
| CC(C)C[C@H](NC(=O)[C@H](CCCNC(=N)N)NC(=O)[C@H](C)NC(=O)[C@@H](NC(=O)[C@H](C)NC(=O)[C@H](C)NC(=O)[C@@H](NC(=O)[C@H](CO)NC(=O)[C@@H](N)CC(C)C)[C@@H](C)O)[C@@H](C)O)C(=O)N[C@@H](C)C(=O)N[C@@H](C)C(=O)N[C@@H](Cc1ccccc1)C(=O)N[C@@H](CC(C)C)C(=O)N[C@@H](C)C(=O)N[C@@H](CCCNC(=N)N)C(=O)N[C@@H](CO)C(N)=O [Example 6] (H-LSTAATARLAAFLARS-NH2) | 1.4 |
